This passage reports T/C results from PubChem BioAssay AID206 (DTP/NCI, 2004).

The test system of this experiment is nude mice, HT29 intrarenal xenograft, tumor weight T/C. As to the kind of experiment: NCI In Vivo Anticancer Drug Screen. Data for tumor model HT29;CX-1 Human Adenocarcinoma (MER+) (intrarenal inoculation) in NU/NU Swiss (nude) mice. Conditions: endpoint: mean tumor weight change, higher = larger tumour. A digest of the protocol:
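Endpoint measured as tumor size or survival; ratio reported is treated group over vehicle controls.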

[1] abbreviates: dose: 200.0 mg/kg/injection, schedule: Q04DX004 (sc), vehicle: saline.

Values joined by “and” are separate entries in the source; they are usually repeats but may differ in a detail not shown here. Identical values can stand only once. Records with an inconclusive call do not appear.

Consider `CC(=O)C1=C(O)C2(O)C(=O)c3c(c(C)c4ccc(C)c(O)c4c3O)CC2C(N)C1=O` (stereo not given), for which the T/C by setting is: (dose: 25.0 mg/kg/injection, schedule: Q04DX004 (sc), vehicle: saline) 153 % of control; (dose: 50.0 mg/kg/injection, schedule: Q04DX004 (sc), vehicle: saline) 173 % of control; (dose: 100.0 mg/kg/injection, schedule: Q04DX004 (sc), vehicle: saline) 102 % of control; under setting [1], 109 % of control.
As to `COc1ccc2c(c1)CCn1c(C)c(COC(=O)NC(C)C)c(COC(=O)NC(C)C)c1-2`, the T/C reads like this: (dose: 300.0 mg/kg/injection, schedule: Q04DX004 (sc), vehicle: distilled water + Tween-80) 165 % of control; (dose: 600.0 mg/kg/injection, schedule: Q04DX004 (sc), vehicle: distilled water + Tween-80) 191 % of control.
As for `O=C[C@@H](CO)O[C@H](C=O)n1cnc2c(=O)[nH]cnc21`, the T/C (dose: 225.0 mg/kg/injection, schedule: Q04DX004 (sc), vehicle: saline) was 76 % of control; the T/C (dose: 450.0 mg/kg/injection, schedule: Q04DX004 (sc), vehicle: saline) was 86 % of control; the T/C (dose: 900.0 mg/kg/injection, schedule: Q04DX004 (sc), vehicle: saline) is 93 % of control.
`CO[C@H](C(=O)[C@@H](O)[C@@H](C)O)[C@@H]1Cc2cc3cc(OC4CC(OC5CC(O)C(O)C(C)O5)C(O)C(C)O4)c(C)c(O)c3c(O)c2C(=O)[C@H]1OC1CC(OC2CC(OC3CC(C)(O)C(O)C(C)O3)C(O)C(C)O2)C(O)C(C)O1` (stereo not given in full): the T/C is 87 % of control (dose: 0.25 mg/kg/injection, schedule: Q04DX004 (sc), vehicle: saline); 53 % of control (dose: 0.5 mg/kg/injection, schedule: Q04DX004 (sc), vehicle: saline); 54 % of control (dose: 1.0 mg/kg/injection, schedule: Q04DX004 (sc), vehicle: saline); -80 % of control (dose: 2.0 mg/kg/injection, schedule: Q01DX010 (sc), vehicle: saline); 61 % of control (dose: 2.0 mg/kg/injection, schedule: Q04DX004 (sc), vehicle: saline).
For the compound `c1ccc(CN2CCOC2)cc1`, the T/C was 100 % of control (dose: 25.0 mg/kg/injection, schedule: Q01DX010 (sc), vehicle: suspension in saline); 106 % of control (dose: 50.0 mg/kg/injection, schedule: Q01DX010 (sc), vehicle: suspension in saline); 102 % of control (dose: 100.0 mg/kg/injection, schedule: Q01DX010 (sc), vehicle: suspension in saline).
`C=C1C(C)C2C(Cc3ccccc3)NC(=O)C23C(OC(C)=O)/C=C/C(C)(O)CC(C)C/C=C/C3C1O` (stereo not given): the T/C is 42 % of control (dose: 3.13 mg/kg/injection, schedule: Q04DX004 (sc), vehicle: distilled water + Tween-80); 124 % of control (dose: 6.25 mg/kg/injection, schedule: Q04DX004 (sc), vehicle: distilled water + Tween-80); 87 % of control (dose: 12.5 mg/kg/injection, schedule: Q04DX004 (sc), vehicle: distilled water + Tween-80); 63 % of control (dose: 25.0 mg/kg/injection, schedule: Q04DX004 (sc), vehicle: distilled water + Tween-80).
`COc1c(C=O)c2c(c(OC)c1OC)-c1ccc(OC)c(=O)cc1[C@@H](NC(C)=O)CC2`: the T/C is, setting by setting: (dose: 18.75 mg/kg/injection, schedule: Q04DX004 (sc), vehicle: Klucel (hydroxypropylcellulose) (HPC)) 70 % of control; (dose: 37.5 mg/kg/injection, schedule: Q04DX004 (sc), vehicle: Klucel (hydroxypropylcellulose) (HPC)) 71 % of control.
In the case of `CN(C)[C@@H]1C(=O)C(C(N)=O)=C(O)[C@@]2(O)C(=O)C3=C(O)c4c(O)ccc(Cl)c4[C@@](C)(O)[C@H]3C[C@@H]12`, the T/C under setting [1] is 62 % of control; the T/C (dose: 400.0 mg/kg/injection, schedule: Q04DX004 (sc), vehicle: saline) was 87 % of control; the T/C (dose: 800.0 mg/kg/injection, schedule: Q04DX004 (sc), vehicle: saline) is 82 % of control; the T/C (dose: 1600.0 mg/kg/injection, schedule: Q04DX004 (sc), vehicle: saline) was 66 % of control.
Consider `COC(=O)C(F)C(Br)C(=O)OC` (stereo not given), for which the T/C is 207 % of control (dose: 9.37 mg/kg/injection, schedule: Q04DX004 (sc), vehicle: saline with Tween-80); 68 % of control (dose: 18.75 mg/kg/injection, schedule: Q04DX004 (sc), vehicle: saline with Tween-80); 223 % of control (dose: 37.5 mg/kg/injection, schedule: Q04DX004 (sc), vehicle: saline with Tween-80).
As for `CCCCOCN(COCCCC)C(C)Cc1ccccc1` (stereo not given), the T/C is 110 % of control (dose: 100.0 mg/kg/injection, schedule: Q04DX004 (sc), vehicle: saline with Tween-80); 178 % of control (dose: 200.0 mg/kg/injection, schedule: Q04DX004 (sc), vehicle: saline with Tween-80); 98 % of control (dose: 400.0 mg/kg/injection, schedule: Q04DX004 (sc), vehicle: saline with Tween-80); 97 % of control (dose: 800.0 mg/kg/injection, schedule: Q04DX004 (sc), vehicle: saline with Tween-80).
Consider `CCCCCC1c2cc(O)ccc2OC1N1CCOCC1` (stereo not given), for which the T/C is, setting by setting: (dose: 75.0 mg/kg/injection, schedule: Q04DX004 (sc), vehicle: saline with Tween-80) 29 % of control; (dose: 150.0 mg/kg/injection, schedule: Q04DX004 (sc), vehicle: saline with Tween-80) 34 % of control; (dose: 1200.0 mg/kg/injection, schedule: Q04DX004 (sc), vehicle: saline with Tween-80) 57 % of control; (dose: 2400.0 mg/kg/injection, schedule: Q04DX004 (sc), vehicle: saline with Tween-80) 15 % of control.
`CC(=O)OCC1OC([S-])C(OC(C)=O)C(OC(C)=O)C1OC(C)=O.CC[PH+](CC)CC.CC[PH+](CC)CC.[Au].[Au]` (stereo not given): the T/C is 177 % of control (dose: 5.0 mg/kg/injection, schedule: Q04DX004 (sc), vehicle: Klucel (hydroxypropylcellulose) (HPC)) and 113 % of control (dose: 10.0 mg/kg/injection, schedule: Q04DX004 (sc), vehicle: Klucel (hydroxypropylcellulose) (HPC)).
`COc1cc(C(=O)c2cc3c(cc2C)OCO3)cc(OC)c1OC`: the T/C by setting is: (dose: 300.0 mg/kg/injection, schedule: Q04DX004 (sc), vehicle: Klucel (hydroxypropylcellulose) (HPC)) 83 % of control; (dose: 600.0 mg/kg/injection, schedule: Q04DX004 (sc), vehicle: Klucel (hydroxypropylcellulose) (HPC)) 64 % of control; (dose: 1200.0 mg/kg/injection, schedule: Q04DX004 (sc), vehicle: Klucel (hydroxypropylcellulose) (HPC)) 82 % of control.
Turning to `COC1C(O)CC(OC2CC(Oc3cc4cc5c(c(O)c4c(O)c3C)C(=O)[C@@H](OC3CC(OC4CC(OC6CC(C)(O)C(OC(C)=O)C(C)O6)C(O)C(C)O4)C(O)C(C)O3)[C@H]([C@H](OC)C(=O)[C@@H](O)[C@@H](C)O)C5)OC(C)C2OC(C)=O)OC1C` (stereo not given in full), the T/C runs as follows: (dose: 0.19 mg/kg/injection, schedule: Q04DX004 (sc), vehicle: Klucel (hydroxypropylcellulose) (HPC)) 103 % of control; (dose: 0.3 mg/kg/injection, schedule: Q04DX004 (sc), vehicle: Klucel (hydroxypropylcellulose) (HPC)) 39 % of control; (dose: 0.38 mg/kg/injection, schedule: Q04DX004 (sc), vehicle: Klucel (hydroxypropylcellulose) (HPC)) 85 % of control; (dose: 0.75 mg/kg/injection, schedule: Q04DX004 (sc), vehicle: Klucel (hydroxypropylcellulose) (HPC)) 89 % of control; (dose: 1.2 mg/kg/injection, schedule: Q04DX004 (sc), vehicle: Klucel (hydroxypropylcellulose) (HPC)) 46 % of control; (dose: 1.5 mg/kg/injection, schedule: Q04DX004 (sc), vehicle: Klucel (hydroxypropylcellulose) (HPC)) 21 % of control.
On to `COC(=O)NC1C(C)OC(OC2C/C=C(/C)C3C=CC4C(OC5CC(OC6CCC(OC7CC(O)C(OC8CCC(O)C(C)O8)C(C)O7)C(C)O6)C(OC(C)=O)C(C)O5)C(C)CC(C)C4C3(C)/C(O)=C3/C(=O)OC4(CC(C=O)=CC(O)C4/C=C\2C)C3=O)CC1(C)[N+](=O)[O-]` (stereo not given), for which the T/C was 92 % of control (dose: 12.5 mg/kg/injection, schedule: Q04DX004 (sc), vehicle: other); 103 % of control (dose: 25.0 mg/kg/injection, schedule: Q04DX004 (sc), vehicle: other); 51 % of control (dose: 50.0 mg/kg/injection, schedule: Q04DX004 (sc), vehicle: other).
Consider `Cn1c(=O)[nH]c2nncnc2c1=O`, for which the T/C was 79 % of control and 101 % of control (dose: 15.0 mg/kg/injection, schedule: Q04DX004 (sc), vehicle: water); 78 % of control and 86 % of control (dose: 60.0 mg/kg/injection, schedule: Q04DX004 (sc), vehicle: water); 19 % of control (dose: 120.0 mg/kg/injection, schedule: Q04DX004 (sc), vehicle: water).
On to `O=C(O)C1CSCN1` (stereo not given), for which the T/C was 96 % of control (dose: 50.0 mg/kg/injection, schedule: Q01DX010 (sc), vehicle: water) and 105 % of control (dose: 100.0 mg/kg/injection, schedule: Q01DX010 (sc), vehicle: water).
For the compound `CCOC(=O)Nc1cc2c(c(N)n1)N=C(CN(C)c1ccccc1)CN2`, the T/C runs as follows: (dose: 6.0 mg/kg/injection, schedule: Q01DX010 (sc), vehicle: Klucel (hydroxypropylcellulose) (HPC)) 35 % of control; (dose: 12.0 mg/kg/injection, schedule: Q01DX010 (sc), vehicle: Klucel (hydroxypropylcellulose) (HPC)) 45 % of control; (dose: 24.0 mg/kg/injection, schedule: Q01DX010 (sc), vehicle: Klucel (hydroxypropylcellulose) (HPC)) 53 % of control.
